Experimental data: US20170157055A1, “PHAR[…] DETERRENT COMPOSITION” (priority 2014, published 2017)
Where two headings read alike, the source gives them in different places.

Procedure: 350 mg of potassium bicarbonate equivalent to single dosage unit was added in beaker 1 while of potassium bicarbonate equivalent to three dosage units were added in beaker 2.

O=C([O-])O.[K+] [potassium bicarbonate]
pH of media after addition (beaker 1: 350 mg (single dosage unit) in 900 ml 0.01N HCl (initial pH 1.90)): 2.30 | pH of media after addition (beaker 2: equivalent to three dosage units in 900 ml 0.01N HCl (initial pH 1.90)): 6.15
